Legend:
[1] = test system: Glutamate receptor ionotropic, NMDA 2B (Homo sapiens), Q13224 [A648C]; assay: Inhibition of NR2B receptor M3c A648C mutant expressed in Xenopus oocytes assessed as NMDA current at 0.5 mM relative to control; type: cell-based; details: Oocyte
[2] = test system: Glutamate receptor ionotropic, NMDA 2B (Homo sapiens), Q13224 [E552A]; assay: Inhibition of NR2B receptor Pre-M1 E552A mutant expressed in Xenopus oocytes assessed as NMDA current at 0.5 mM relative to control; type: cell-based; details: Oocyte
[3] = Ratio of Kapp for wild type NR2B receptor to Kapp for NR2B receptor L643C/T647A mutant
[4] = test system: Glutamate receptor ionotropic, NMDA 2B (Homo sapiens), Q13224 [F550A]; assay: Inhibition of NR2B receptor Pre-M1 F550A mutant expressed in Xenopus oocytes assessed as NMDA current at 0.5 mM relative to control; type: cell-based; details: Oocyte
[5] = test system: Glutamate receptor ionotropic, NMDA 2B (Homo sapiens), Q13224 [N615A]; assay: Inhibition of NR2B receptor M2 N615A mutant expressed in Xenopus oocytes assessed as NMDA current at 0.5 mM relative to control; type: cell-based; details: Oocyte
[6] = Ratio of Kapp for wild type NR2B receptor to Kapp for NR2B receptor ATD E236A mutant
[7] = test system: Glutamate receptor ionotropic, NMDA 2B (Homo sapiens), Q13224 [F176A]; assay: Binding affinity to NR2B receptor ATD F176A mutant
[8] = Ratio of Kapp for wild type NR2B receptor to Kapp for NR2B receptor T647A/T103A mutant
[9] = Ratio of Kapp for wild type NR2B receptor to Kapp for NR2B receptor T647A/K234A mutant
[10] = test system: Glutamate receptor ionotropic, NMDA 2B (Homo sapiens), Q13224 [L650A]; assay: Inhibition of NR2B receptor M3c L650A mutant expressed in Xenopus oocytes assessed as NMDA current at 0.5 mM relative to control; type: cell-based; details: Oocyte
[11] = test system: Glutamate receptor ionotropic, NMDA 2B (Homo sapiens), Q13224 [D101A]; assay: Inhibition of NR2B receptor ATD D101A mutant expressed in Xenopus oocytes assessed as NMDA current at 0.5 mM relative to control; type: cell-based; details: Oocyte
Glutamate receptor ionotropic, NMDA 2B (Homo sapiens), Q13224 [D101A], sequence (Q13224 whole entry D101A): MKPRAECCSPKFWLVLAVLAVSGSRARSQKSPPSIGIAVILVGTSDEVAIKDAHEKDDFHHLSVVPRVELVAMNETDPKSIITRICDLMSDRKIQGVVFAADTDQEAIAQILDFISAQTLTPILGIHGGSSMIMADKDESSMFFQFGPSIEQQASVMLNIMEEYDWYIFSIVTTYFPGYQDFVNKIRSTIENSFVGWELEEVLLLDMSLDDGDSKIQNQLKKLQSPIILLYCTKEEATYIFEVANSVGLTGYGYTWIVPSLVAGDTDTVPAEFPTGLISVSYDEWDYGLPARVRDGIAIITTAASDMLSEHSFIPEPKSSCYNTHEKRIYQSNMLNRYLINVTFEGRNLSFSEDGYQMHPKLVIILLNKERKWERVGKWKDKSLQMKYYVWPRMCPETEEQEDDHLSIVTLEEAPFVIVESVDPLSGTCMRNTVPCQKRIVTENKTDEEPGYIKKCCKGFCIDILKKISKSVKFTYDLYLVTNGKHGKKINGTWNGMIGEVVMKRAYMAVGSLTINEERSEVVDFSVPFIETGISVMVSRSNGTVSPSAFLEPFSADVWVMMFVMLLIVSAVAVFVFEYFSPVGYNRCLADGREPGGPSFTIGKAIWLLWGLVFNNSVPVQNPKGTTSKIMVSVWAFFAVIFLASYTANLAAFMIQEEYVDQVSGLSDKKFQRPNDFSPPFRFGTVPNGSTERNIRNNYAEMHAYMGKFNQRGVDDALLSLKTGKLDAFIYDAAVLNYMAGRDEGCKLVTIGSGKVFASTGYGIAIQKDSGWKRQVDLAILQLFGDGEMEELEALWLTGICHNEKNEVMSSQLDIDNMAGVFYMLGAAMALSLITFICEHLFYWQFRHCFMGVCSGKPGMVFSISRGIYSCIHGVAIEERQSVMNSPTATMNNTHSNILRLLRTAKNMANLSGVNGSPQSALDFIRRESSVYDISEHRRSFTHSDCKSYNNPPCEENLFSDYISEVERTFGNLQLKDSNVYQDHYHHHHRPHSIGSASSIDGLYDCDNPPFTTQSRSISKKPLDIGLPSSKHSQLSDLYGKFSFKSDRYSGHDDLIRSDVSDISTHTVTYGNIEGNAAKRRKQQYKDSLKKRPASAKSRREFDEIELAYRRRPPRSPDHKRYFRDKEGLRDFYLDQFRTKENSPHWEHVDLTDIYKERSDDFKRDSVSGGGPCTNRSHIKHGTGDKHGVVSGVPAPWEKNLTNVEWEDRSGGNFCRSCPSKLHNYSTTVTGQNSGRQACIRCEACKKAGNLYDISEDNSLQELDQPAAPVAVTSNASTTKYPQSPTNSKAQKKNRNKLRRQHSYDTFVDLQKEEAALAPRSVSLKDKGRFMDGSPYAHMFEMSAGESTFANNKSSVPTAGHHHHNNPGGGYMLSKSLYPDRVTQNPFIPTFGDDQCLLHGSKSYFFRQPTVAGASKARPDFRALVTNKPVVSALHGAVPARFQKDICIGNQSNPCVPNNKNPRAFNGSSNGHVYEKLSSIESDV

[12] = test system: Glutamate receptor ionotropic, NMDA 2B (Homo sapiens), Q13224 [S645A,T103A]; assay: Binding affinity to NR2B receptor S645A/T103A mutant
Glutamate receptor ionotropic, NMDA 2B (Homo sapiens), Q13224 [S645A,T103A], sequence (Q13224 whole entry T103A/S645A): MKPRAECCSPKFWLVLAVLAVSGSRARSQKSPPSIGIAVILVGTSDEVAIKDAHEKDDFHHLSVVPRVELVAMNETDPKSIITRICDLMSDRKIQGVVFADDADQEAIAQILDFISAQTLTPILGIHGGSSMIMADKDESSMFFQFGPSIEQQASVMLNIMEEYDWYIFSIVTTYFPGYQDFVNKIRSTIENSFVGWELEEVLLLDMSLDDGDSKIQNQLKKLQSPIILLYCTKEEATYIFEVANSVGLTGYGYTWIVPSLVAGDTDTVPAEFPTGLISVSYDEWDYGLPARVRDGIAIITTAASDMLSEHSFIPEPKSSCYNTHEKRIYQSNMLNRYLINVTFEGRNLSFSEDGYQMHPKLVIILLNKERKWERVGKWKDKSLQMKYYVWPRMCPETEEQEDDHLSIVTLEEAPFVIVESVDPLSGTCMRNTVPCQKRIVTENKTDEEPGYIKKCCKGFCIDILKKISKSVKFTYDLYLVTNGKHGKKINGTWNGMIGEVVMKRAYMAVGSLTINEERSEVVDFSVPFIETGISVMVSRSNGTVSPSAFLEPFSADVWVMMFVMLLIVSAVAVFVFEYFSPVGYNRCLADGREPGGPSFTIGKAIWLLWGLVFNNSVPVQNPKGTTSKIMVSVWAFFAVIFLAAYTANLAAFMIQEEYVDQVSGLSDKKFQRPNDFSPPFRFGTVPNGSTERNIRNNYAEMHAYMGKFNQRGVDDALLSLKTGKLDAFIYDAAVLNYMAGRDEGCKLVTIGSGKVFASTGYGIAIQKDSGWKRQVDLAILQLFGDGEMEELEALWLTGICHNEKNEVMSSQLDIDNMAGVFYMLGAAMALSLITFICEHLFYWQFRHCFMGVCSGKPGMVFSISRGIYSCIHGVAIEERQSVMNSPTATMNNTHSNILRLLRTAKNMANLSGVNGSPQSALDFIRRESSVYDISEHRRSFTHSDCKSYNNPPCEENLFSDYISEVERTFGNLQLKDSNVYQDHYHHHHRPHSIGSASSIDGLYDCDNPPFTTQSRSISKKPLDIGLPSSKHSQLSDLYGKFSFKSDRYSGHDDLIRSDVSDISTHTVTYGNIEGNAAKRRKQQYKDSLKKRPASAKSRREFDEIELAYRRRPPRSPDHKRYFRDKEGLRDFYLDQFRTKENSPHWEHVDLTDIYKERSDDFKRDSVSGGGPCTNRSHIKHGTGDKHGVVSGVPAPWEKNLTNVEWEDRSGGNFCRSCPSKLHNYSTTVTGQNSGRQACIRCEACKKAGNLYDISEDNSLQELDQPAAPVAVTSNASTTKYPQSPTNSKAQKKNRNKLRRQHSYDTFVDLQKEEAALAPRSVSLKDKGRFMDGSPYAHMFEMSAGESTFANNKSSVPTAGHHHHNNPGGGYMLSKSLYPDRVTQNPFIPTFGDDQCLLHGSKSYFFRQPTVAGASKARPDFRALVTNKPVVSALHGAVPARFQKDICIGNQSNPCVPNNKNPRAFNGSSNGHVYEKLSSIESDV

[13] = test system: Glutamate receptor ionotropic, NMDA 2B (Homo sapiens), Q13224 [K234A]; assay: Binding affinity to NR2B receptor ATD K234A mutant
[14] = test system: Glutamate receptor ionotropic, NMDA 2B (Homo sapiens), Q13224 [E658A]; assay: Inhibition of NR2B receptor post-M3 E658A mutant expressed in Xenopus oocytes assessed as NMDA current at 0.5 mM relative to control; type: cell-based; details: Oocyte
[15] = test system: Glutamate receptor ionotropic, NMDA 2B (Homo sapiens), Q13224 [I641A]; assay: Binding affinity to NR2B receptor M3c I641A mutant
[16] = test system: Glutamate receptor ionotropic, NMDA 2B (Homo sapiens), Q13224 [L643A,K234A]; assay: Binding affinity to NR2B receptor L643A/K234A mutant
[17] = Binding affinity to NR2B receptor […]/K234A mutant
[18] = test system: Glutamate receptor ionotropic, NMDA 2B (Homo sapiens), Q13224 [L643A,T103A]; assay: Binding affinity to NR2B receptor L643A/T103A mutant

Glutamate receptor ionotropic, NMDA 2B (Homo sapiens), Q13224 [A648C], sequence (Q13224 whole entry A648C): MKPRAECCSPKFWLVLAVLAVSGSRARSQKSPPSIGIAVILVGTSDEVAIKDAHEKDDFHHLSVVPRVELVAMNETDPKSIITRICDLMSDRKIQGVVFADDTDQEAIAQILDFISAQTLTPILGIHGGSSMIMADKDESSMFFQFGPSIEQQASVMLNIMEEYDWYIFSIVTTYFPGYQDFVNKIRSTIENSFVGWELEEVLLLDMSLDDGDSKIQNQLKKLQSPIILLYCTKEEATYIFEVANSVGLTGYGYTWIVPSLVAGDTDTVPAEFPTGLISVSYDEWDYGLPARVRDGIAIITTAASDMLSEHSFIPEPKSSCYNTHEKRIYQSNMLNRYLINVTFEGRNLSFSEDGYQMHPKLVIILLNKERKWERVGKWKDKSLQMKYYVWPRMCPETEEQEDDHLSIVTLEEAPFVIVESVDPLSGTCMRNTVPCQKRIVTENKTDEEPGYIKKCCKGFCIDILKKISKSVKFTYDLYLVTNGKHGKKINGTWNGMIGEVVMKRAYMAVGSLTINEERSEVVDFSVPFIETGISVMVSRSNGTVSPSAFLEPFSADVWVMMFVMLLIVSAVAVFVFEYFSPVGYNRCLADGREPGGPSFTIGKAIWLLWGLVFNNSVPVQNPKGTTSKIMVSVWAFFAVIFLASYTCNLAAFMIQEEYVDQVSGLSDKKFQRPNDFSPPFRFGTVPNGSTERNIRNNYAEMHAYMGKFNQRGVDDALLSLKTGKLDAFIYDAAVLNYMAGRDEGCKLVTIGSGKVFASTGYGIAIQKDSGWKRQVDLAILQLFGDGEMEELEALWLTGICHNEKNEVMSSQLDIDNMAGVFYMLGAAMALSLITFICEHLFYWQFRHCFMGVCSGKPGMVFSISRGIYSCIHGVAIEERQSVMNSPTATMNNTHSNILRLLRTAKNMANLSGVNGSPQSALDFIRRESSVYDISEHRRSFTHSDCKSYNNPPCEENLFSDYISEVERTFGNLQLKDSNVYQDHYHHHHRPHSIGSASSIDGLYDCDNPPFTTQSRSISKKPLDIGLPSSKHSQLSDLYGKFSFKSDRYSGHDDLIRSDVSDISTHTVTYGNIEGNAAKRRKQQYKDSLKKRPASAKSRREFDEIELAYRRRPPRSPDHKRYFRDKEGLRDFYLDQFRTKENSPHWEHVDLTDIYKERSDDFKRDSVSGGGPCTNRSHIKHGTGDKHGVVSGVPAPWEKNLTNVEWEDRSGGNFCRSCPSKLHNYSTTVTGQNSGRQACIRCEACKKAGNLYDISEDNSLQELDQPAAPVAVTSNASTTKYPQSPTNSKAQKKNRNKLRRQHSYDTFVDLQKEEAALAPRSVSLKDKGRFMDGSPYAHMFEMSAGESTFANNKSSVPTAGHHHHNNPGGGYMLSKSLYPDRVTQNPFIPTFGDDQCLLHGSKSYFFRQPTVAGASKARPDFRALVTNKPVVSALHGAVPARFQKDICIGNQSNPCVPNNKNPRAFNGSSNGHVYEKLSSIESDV

inhibition [1]: 73%
inhibition [2]: 77%
Ratio Ki(app) [3]: 21
inhibition [4]: 62%
inhibition [5]: 66%
Ratio Ki(app) [6]: 2.5
Kapp [7]: 2.77 mM
Ratio Ki(app) [8]: 7.7
Ratio Ki(app) [9]: 8
inhibition [10]: 76%
inhibition [11]: 83%
Kapp [12]: 6.28 mM
Kapp [13]: 4.31 mM
inhibition [14]: 65%
Kapp [15]: 2.45 mM
Kapp [16]: 6.33 mM
Kapp [17]: 7 mM
Kapp [18]: 5.07 mM
SMILES: NC(=O)OCC(COC(N)=O)c1ccccc1

— ChEMBL document CHEMBL1144021, “Molecular determinants of the anticonvulsant felbamate binding site in the N-methyl-D-aspartate receptor” (J Med Chem, 2008)
